Laboratory results from the supplement of paper PMC10307832.

Assays:
Assay in all cases: relative viability (nuclei count vs DMSO), 5 days (fraction); higher = more cells survive
ABC-1 = system: ABC-1
Summary of the method: (§1)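 A single step with final 0.05% Triton X-100, 1% formaldehyde and 1 ug/ml Hoechst fixed the cells and stained nuclei 5 days after treatment. Lung cancer cell lines in 1536-well plates had been treated by pin tool the day after seeding with one drug alone or a fixed anchor-drug dose plus five library-drug doses (not always all listed) in √10 steps, and nuclei were counted on 4× images. Relative viability is the ratio of nuclei in treated wells to nuclei in vehicle wells, taken as the median of duplicate plates.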

CAL-12T = system: CAL-12T
Summary of the method: as §1

ChaGo-K-1 = system: ChaGo-K-1
Summary of the method: as §1

HCC-366 = system: HCC-366
Summary of the method: as §1

HCC-78 = system: HCC-78
Summary of the method: as §1

LC-2-ad = system: LC-2-ad
Summary of the method: as §1

LOU-NH91 = system: LOU-NH91
Summary of the method: as §1

LU99A = system: LU99A
Summary of the method: as §1

NCI-H1651 = system: NCI-H1651
Summary of the method: as §1

NCI-H1734 = system: NCI-H1734
Summary of the method: as §1

NCI-H1755 = system: NCI-H1755
Summary of the method: as §1

NCI-H1944 = system: NCI-H1944
Summary of the method: as §1

NCI-H2087 = system: NCI-H2087
Summary of the method: as §1

NCI-H2170 = system: NCI-H2170
Summary of the method: as §1

NCI-H2228 = system: NCI-H2228
Summary of the method: as §1

NCI-H2405 = system: NCI-H2405
Summary of the method: as §1

NCI-H3122 = system: NCI-H3122
Summary of the method: as §1

NCI-H460 = system: NCI-H460
Summary of the method: as §1

PC-3 [JPC-3] = system: PC-3 [JPC-3]
Summary of the method: as §1

RERF-LC-KJ = system: RERF-LC-KJ
Summary of the method: as §1

UMC-11 = system: UMC-11
Summary of the method: as §1

What does the source list for `Oc1nc(-c2ccc(C(F)(F)F)cc2)nc2c1CSCC2` [XAV939] + C[C@@H](Oc1cc(-c2cnn(C3CCNCC3)c2)cnc1N)c1c(Cl)ccc(F)c1Cl [Crizotinib] (partner 1 µM)?
relative viability (ABC-1; first compound 0.08 µM): 1.32; relative viability (ABC-1; first compound 0.253 µM): 0.905; relative viability (ABC-1; first compound 0.8 µM): 0.908; relative viability (ABC-1; first compound 2.53 µM): 0.603; relative viability (CAL-12T; first compound 0.08 µM): 0.687; relative viability (CAL-12T; first compound 0.253 µM): 0.449; relative viability (CAL-12T; first compound 0.8 µM): 0.419; relative viability (CAL-12T; first compound 2.53 µM): 0.56; relative viability (ChaGo-K-1; first compound 0.08 µM): 1.28; relative viability (ChaGo-K-1; first compound 0.253 µM): 1.16; relative viability (ChaGo-K-1; first compound 0.8 µM): 1.07; relative viability (ChaGo-K-1; first compound 2.53 µM): 0.883; relative viability (HCC-366; first compound 0.08 µM): 0.66; relative viability (HCC-366; first compound 0.253 µM): 0.56; relative viability (HCC-366; first compound 0.8 µM): 0.52; relative viability (HCC-366; first compound 2.53 µM): 0.466; relative viability (HCC-78; first compound 0.08 µM): 0.342; relative viability (HCC-78; first compound 0.253 µM): 0.316; relative viability (HCC-78; first compound 0.8 µM): 0.326; relative viability (HCC-78; first compound 2.53 µM): 0.299; relative viability (LC-2-ad; first compound 0.08 µM): 0.468; relative viability (LC-2-ad; first compound 0.253 µM): 0.382; relative viability (LC-2-ad; first compound 0.8 µM): 0.435; relative viability (LC-2-ad; first compound 2.53 µM): 0.489; relative viability (LOU-NH91; first compound 0.08 µM): 0.719; relative viability (LOU-NH91; first compound 0.253 µM): 0.708; relative viability (LOU-NH91; first compound 0.8 µM): 0.734; relative viability (LOU-NH91; first compound 2.53 µM): 0.699; relative viability (LU99A; first compound 0.08 µM): 0.539; relative viability (LU99A; first compound 0.253 µM): 0.55; relative viability (LU99A; first compound 0.8 µM): 0.567; relative viability (LU99A; first compound 2.53 µM): 0.504; relative viability (NCI-H1651; first compound 0.08 µM): 0.988; relative viability (NCI-H1651; first compound 0.253 µM): 0.798; relative viability (NCI-H1651; first compound 0.8 µM): 0.857; relative viability (NCI-H1651; first compound 2.53 µM): 0.856; relative viability (NCI-H1734; first compound 0.08 µM): 0.725; relative viability (NCI-H1734; first compound 0.253 µM): 0.637; relative viability (NCI-H1734; first compound 0.8 µM): 0.662; relative viability (NCI-H1734; first compound 2.53 µM): 0.619; relative viability (NCI-H1755; first compound 0.08 µM): 0.832; relative viability (NCI-H1755; first compound 0.253 µM): 0.731; relative viability (NCI-H1755; first compound 0.8 µM): 0.778; relative viability (NCI-H1755; first compound 2.53 µM): 0.762; relative viability (NCI-H1944; first compound 0.08 µM): 1.32; relative viability (NCI-H1944; first compound 0.253 µM): 1.08; relative viability (NCI-H1944; first compound 0.8 µM): 1.03; relative viability (NCI-H1944; first compound 2.53 µM): 0.959; relative viability (NCI-H2087; first compound 0.08 µM): 0.879; relative viability (NCI-H2087; first compound 0.253 µM): 0.998; relative viability (NCI-H2087; first compound 0.8 µM): 0.715; relative viability (NCI-H2087; first compound 2.53 µM): 0.797; relative viability (NCI-H2170; first compound 0.08 µM): 1.28; relative viability (NCI-H2170; first compound 0.253 µM): 1.01; relative viability (NCI-H2170; first compound 0.8 µM): 1.02; relative viability (NCI-H2170; first compound 2.53 µM): 0.921; relative viability (NCI-H2228; first compound 0.08 µM): 0.431; relative viability (NCI-H2228; first compound 0.253 µM): 0.438; relative viability (NCI-H2228; first compound 0.8 µM): 0.464; relative viability (NCI-H2228; first compound 2.53 µM): 0.398; relative viability (NCI-H2405; first compound 0.08 µM): 0.906; relative viability (NCI-H2405; first compound 0.253 µM): 0.816; relative viability (NCI-H2405; first compound 0.8 µM): 0.808; relative viability (NCI-H2405; first compound 2.53 µM): 0.775; relative viability (NCI-H3122; first compound 0.08 µM): 0.286; relative viability (NCI-H3122; first compound 0.253 µM): 0.27; relative viability (NCI-H3122; first compound 0.8 µM): 0.238; relative viability (NCI-H3122; first compound 2.53 µM): 0.234; relative viability (NCI-H460; first compound 0.08 µM): 1.44; relative viability (NCI-H460; first compound 0.253 µM): 0.879; relative viability (NCI-H460; first compound 0.8 µM): 0.816; relative viability (NCI-H460; first compound 2.53 µM): 0.874; relative viability (PC-3 [JPC-3]; first compound 0.08 µM): 0.936; relative viability (PC-3 [JPC-3]; first compound 0.253 µM): 0.903; relative viability (PC-3 [JPC-3]; first compound 0.8 µM): 0.966; relative viability (PC-3 [JPC-3]; first compound 2.53 µM): 0.92; relative viability (RERF-LC-KJ; first compound 0.08 µM): 0.807; relative viability (RERF-LC-KJ; first compound 0.253 µM): 0.82; relative viability (RERF-LC-KJ; first compound 0.8 µM): 0.741; relative viability (RERF-LC-KJ; first compound 2.53 µM): 0.582; relative viability (UMC-11; first compound 0.08 µM): 0.777; relative viability (UMC-11; first compound 0.8 µM): 0.578; relative viability (UMC-11; first compound 2.53 µM): 0.414
